What was measured:
COS-1 cells = assay: Anti-pTyr immunofluorescent staining of tyrosine phosphorylation in COS-1 cells; type: cell-based, monkey
Procedure: COS-1, HeLa cells (Japanese Collection of Research Bioresources, Osaka), MCF-7 (provided by H. Saya), A431 (provided by M. N. Fukuda), HEK293 (provided by M. Tagawa), HCT116 (provided by T. Tomonaga), and SYF ([37]; provided by M. Okada and S. Nada) cells were cultured in Iscove's modified DME containing 5% fetal bovine serum (FBS). Cells were transiently transfected with 0.5 μg of plasmid vector using Trans IT Transfection reagent (Mirus) or with 1 μg of plasmid vector using linear polyethylenimine (25 kDa) (Polyscience, Inc.). For growth factor stimulation, COS-1 cells were starved under low serum conditions (0.05% FBS) for 24 h and restimulated with serum (5% FBS). For stimulation of endogenous SFKs, cells were treated with 3 mM Na3VO4 for 3 h, and SFK-mediated tyrosine phosphorylation was verified by treatment with 10 μM PP2 (SFK inhibitor; Calbiochem) or 100 nM wortmannin (PI3K inhibitor; Alomone Labs) for 21 h before Na3VO4 treatment. Na3VO4 was dissolved at 500 mM in 500 mM unbuffered HEPES before use. For preparation of stable transfectant clones, SYF cells transfected with c-Src-wt or Lyn-wt were selected in 333 μg/mL Zeocin (Invitrogen), and COS-1 cells were transfected with the BOSH2BGFP-N1 vector, which encodes GFP-tagged histone H2B ([39,40]; provided by H. Saya), were selected in 3 μg/mL blasticidin.
Confocal and Nomarski differential-interference-contrast images were obtained using a Fluoview FV500 confocal laser scanning microscope with a 40×1.00 NA oil and a 100×1.35 NA oil immersion objective (Olympus, Tokyo) and an LSM 510 confocal laser scanning microscope with a 63×1.40 NA oil immersion objective (Zeiss), as described. One planar (xy) section slice (0.6-μm thickness) is shown in all experiments. In brief, cells were fixed with 4% paraformaldehyde for 20 min, and permeabilized in phosphate-buffered saline (PBS) containing 0.1% saponin and 3% bovine serum albumin at room temperature. Cells were subsequently reacted with an appropriate primary antibody for 1 h, washed with PBS containing 0.1% saponin, stained with FITC- or TRITC-conjugated secondary antibody for 1 h. For DNA staining, cells were subsequently treated with 200 μg/ml RNase A for 1 h and 20 μg/ml propidium iodide (PI) for 30 min, and mounted with Prolong Antifade™ reagent (Molecular Probes). To ensure no bleed-through from the fluorescein signal into the red channel, fluorescein and rhodamine were independently excited at 488 nm and 543 nm, respectively. PI was excited at 488 or 543 nm. Emission signals were detected between 505 and 525 nm for fluorescein, at more than 560 nm for rhodamine and more than 610 nm for PI [44]. Composite figures were prepared using Photoshop 5.0 and Illustrator 9.0 software (Adobe). For nuclear staining with anti-pTyr, anti-ATF-2 pT69/71, and anti-histone H3K4me3 antibodies, cells were in situ extracted with 0.5% Triton X-100 at 4° C. for 3 min before fixation with 4% paraformaldehyde. For HP1α staining, cells were fixed in 100% methanol at −20° C. for 10 min followed by permeabilization for 30 min in PBS containing 0.1% Triton X-100 at room temperature. Cells were reacted with anti-HP1α antibody for 1 h at room temperature, washed with PBS four times, and stained with secondary antibody for 1 h. Fluorescence intensity plots of anti-histone H3K4me3, anti-ATF-2 pT69/71 and anti-HP1α antibody and PI staining (see FIGS. 18B, 19B, and 20B, respectively) were generated using Fluoview version 4.3 software (Olympus, Tokyo). […]

SYF cells = assay: Anti-pTyr immunofluorescent staining of tyrosine phosphorylation in SYF cells; type: cell-based, mouse; settings: 3 mM Na3VO4 for 3 h, FIG. 46
Procedure: COS-1, HeLa cells (Japanese Collection of Research Bioresources, Osaka), MCF-7 (provided by H. Saya), A431 (provided by M. N. Fukuda), HEK293 (provided by M. Tagawa), HCT116 (provided by T. Tomonaga), and SYF ([37]; provided by M. Okada and S. Nada) cells were cultured in Iscove's modified DME containing 5% fetal bovine serum (FBS). Cells were transiently transfected with 0.5 μg of plasmid vector using Trans IT Transfection reagent (Mirus) or with 1 μg of plasmid vector using linear polyethylenimine (25 kDa) (Polyscience, Inc.). For growth factor stimulation, COS-1 cells were starved under low serum conditions (0.05% FBS) for 24 h and restimulated with serum (5% FBS). […]
Confocal and Nomarski differential-interference-contrast images were obtained using a Fluoview FV500 confocal laser scanning microscope with a 40×1.00 NA oil and a 100×1.35 NA oil immersion objective (Olympus, Tokyo) and an LSM 510 confocal laser scanning microscope with a 63×1.40 NA oil immersion objective (Zeiss), as described. […] Emission signals were detected between 505 and 525 nm for fluorescein, at more than 560 nm for rhodamine and more than 610 nm for PI [44]. […] Fluorescence intensity plots of anti-histone H3K4me3, anti-ATF-2 pT69/71 and anti-HP1α antibody and PI staining (see FIGS. 18B, 19B, and 20B, respectively) were generated using Fluoview version 4.3 software (Olympus, Tokyo). […]

Row | Structure (SMILES) | basal levels of tyrosine phosphorylation (COS-1 cells; 10 μM PP2 or 100 nM wortmannin for 24 h, FIG. 22) | tyrosine phosphorylation in Na3VO4-treated cells (COS-1 cells; 10 μM PP2 pretreatment 21 h, then 3 mM Na3VO4 3 h, FIG. 23) | Na3VO4-induced increase in nuclear tyrosine phosphorylation (COS-1 cells; PP2 plus Na3VO4, in situ extraction with 0.5% Triton X-100, FIGS. 24 and 25) | tyrosine phosphorylation (SYF cells) | tyrosine phosphorylation throughout the cell (COS-1 cells; 3 mM Na3VO4 for 3 h, FIG. 23) | tyrosine phosphorylation within the nucleus (COS-1 cells; Na3VO4, in situ extraction with 0.5% Triton X-100 before fixation, FIGS. 24 and 25)
1 | CC(C)(C)n1nc(-c2ccc(Cl)cc2)c2c(N)ncnc21 [PP2] | significantly reduce | decreased | significantly inhibited | – | – | –
2 | [Na+].[Na+].[Na+].[O]=[V]([O-])([O-])[O-] [Na3VO4, sodium orthovanadate] | – | – | – | increased tyrosine phosphorylation at levels comparable to those in COS-1 cells | greatly increased | increase in tyrosine phosphorylation induced by Na3VO4 was clearly visible

From US10072304B2, “Nuclear localization of Src-family tyrosine kinases is required for growth factor-induced euchromatinization” (National University Corporation Chiba University, priority 2009, dated 2018)
